Data from US20130310379A1, “MODULATORS OF METHYL MODIFYING ENZYMES, COMPOSITIONS AND USES THEREOF” (CONSTELLATION PHARMACEUTICALS, priority 2010, published 2013).

Each compound was assayed against EZH2 (Homo sapiens, UniProt Q15910) (assay: EZH2 assay: rPRC2 with biotinylated oligonucleosome substrates and 3H SAM, FlashPlate scintillation counting, IC50). Details: rPRC2, biotinylated oligonucleosome substrates, 3H SAM; read-out: EZH2 IC50.
Assay type: biochemical
Procedure, shortened: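 rPRC2 (2 nM EZH2) pre-incubated 20 min with compound (80 to 0.16 uM, ten 2-fold steps), then 60 min reaction with 0.2 uM 3H SAM, 0.2 uM biotinylated oligonucleosomes, 3.6 uM H3K27me3 peptide in Tris pH 8.5. SAH/EDTA quench; 4-parameter IC50 fit.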

Chain of EZH2 (Q15910 whole entry): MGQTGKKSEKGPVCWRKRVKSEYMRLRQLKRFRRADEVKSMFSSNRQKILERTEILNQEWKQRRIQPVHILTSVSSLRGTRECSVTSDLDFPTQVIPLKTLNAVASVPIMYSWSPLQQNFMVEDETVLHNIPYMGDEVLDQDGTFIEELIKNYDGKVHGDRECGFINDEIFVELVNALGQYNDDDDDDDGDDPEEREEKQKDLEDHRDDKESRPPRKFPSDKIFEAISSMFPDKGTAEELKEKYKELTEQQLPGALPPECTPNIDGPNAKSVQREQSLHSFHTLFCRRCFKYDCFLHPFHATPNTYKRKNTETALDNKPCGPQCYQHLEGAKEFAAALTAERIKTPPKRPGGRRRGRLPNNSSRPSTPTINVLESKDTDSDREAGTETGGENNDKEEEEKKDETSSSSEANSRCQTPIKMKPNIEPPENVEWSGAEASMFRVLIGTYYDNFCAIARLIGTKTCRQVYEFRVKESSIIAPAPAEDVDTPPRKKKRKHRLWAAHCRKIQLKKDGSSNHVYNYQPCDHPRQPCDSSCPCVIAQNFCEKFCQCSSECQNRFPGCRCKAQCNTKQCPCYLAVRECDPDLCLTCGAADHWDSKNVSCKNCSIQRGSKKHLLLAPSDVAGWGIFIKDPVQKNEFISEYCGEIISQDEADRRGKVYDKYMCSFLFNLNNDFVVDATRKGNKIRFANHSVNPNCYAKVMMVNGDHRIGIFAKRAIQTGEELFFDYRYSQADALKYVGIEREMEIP
Chain of EZH2 (O75530 whole entry partner): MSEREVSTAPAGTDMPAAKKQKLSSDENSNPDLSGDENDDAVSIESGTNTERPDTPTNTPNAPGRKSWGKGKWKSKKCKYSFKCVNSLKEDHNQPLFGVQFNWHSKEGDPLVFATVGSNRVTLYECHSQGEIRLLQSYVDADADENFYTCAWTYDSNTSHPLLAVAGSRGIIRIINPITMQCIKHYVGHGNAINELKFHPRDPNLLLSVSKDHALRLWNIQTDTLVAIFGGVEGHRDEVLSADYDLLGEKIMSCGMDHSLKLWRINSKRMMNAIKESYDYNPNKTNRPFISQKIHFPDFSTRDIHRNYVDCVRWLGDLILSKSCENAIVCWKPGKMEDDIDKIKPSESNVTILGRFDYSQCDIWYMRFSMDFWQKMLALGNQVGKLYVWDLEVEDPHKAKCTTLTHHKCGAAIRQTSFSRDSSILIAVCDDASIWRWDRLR
Chain of EZH2 (Q15022 whole entry partner): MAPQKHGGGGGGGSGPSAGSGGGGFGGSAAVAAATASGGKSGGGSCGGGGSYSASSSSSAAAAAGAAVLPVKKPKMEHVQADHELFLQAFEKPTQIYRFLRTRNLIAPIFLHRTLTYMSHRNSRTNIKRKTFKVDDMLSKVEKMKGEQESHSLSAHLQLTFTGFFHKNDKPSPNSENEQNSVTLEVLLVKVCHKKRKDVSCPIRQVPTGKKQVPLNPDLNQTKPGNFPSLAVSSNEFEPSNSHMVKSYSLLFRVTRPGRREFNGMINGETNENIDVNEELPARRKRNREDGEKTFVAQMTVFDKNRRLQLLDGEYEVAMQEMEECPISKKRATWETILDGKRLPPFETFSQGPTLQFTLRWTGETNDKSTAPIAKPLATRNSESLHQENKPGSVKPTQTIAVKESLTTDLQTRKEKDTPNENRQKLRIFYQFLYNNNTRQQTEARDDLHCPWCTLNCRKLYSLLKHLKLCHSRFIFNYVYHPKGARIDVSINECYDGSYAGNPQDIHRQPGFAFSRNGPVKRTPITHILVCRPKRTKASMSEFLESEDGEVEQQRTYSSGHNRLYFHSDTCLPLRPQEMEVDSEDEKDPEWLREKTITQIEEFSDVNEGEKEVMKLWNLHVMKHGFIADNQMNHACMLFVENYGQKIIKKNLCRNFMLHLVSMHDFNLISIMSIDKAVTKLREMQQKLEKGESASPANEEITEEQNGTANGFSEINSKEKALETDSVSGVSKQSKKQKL

SMILES	IC50
CC1(C)CC(NC(=O)c2ccc(OCC3CCCCN3)c(Cl)c2)CC(C)(C)N1 (stereo not shown) [Compound I-450]	> 80 µM
Cc1ccccc1Oc1ccc(C(=O)NC2CC(C)(C)NC(C)(C)C2)cc1Cl [Compound I-325]	5 to 20 µM
CNCc1ccccc1Oc1ccc(C(=O)NC2CC(C)(C)NC(C)(C)C2)cc1 [Compound I-274]	> 80 µM
CC1(C)CC(NC(=O)c2ccc(C3(c4ccccc4)CC3)cc2)CC(C)(C)N1 [Compound I-437]	> 80 µM
CC1(C)CC(NC(=O)c2ccc(Oc3cccc(CN4CCCCC4=O)c3)c(Cl)c2)CC(C)(C)N1 [Compound I-446]	5 to 20 µM
CC1(C)CC(NC(=O)c2ccc(Oc3ccccc3C(N)=O)c(Cl)c2)CC(C)(C)N1 [Compound I-284]	5 to 20 µM
CC(C)c1ccc(C(=O)NC2CC(C)(C)NC(C)(C)C2)cc1 [Compound I-135]	> 80 µM
CC1(C)CC(NC(=O)c2ccc(Oc3cccc(C4=CCOCC4)c3C#N)c(Cl)c2)CC(C)(C)N1 [Compound I-529]	< 5 µM
CN1CCN(c2ccc(-c3cccc(Oc4ccc(C(=O)NC5CC(C)(C)NC(C)(C)C5)cc4Cl)c3C#N)cn2)CC1 [Compound I-550]	< 5 µM
CC1(C)CC(NC(=O)c2ccc(Oc3ccccc3-c3nn[nH]n3)c(Cl)c2)CC(C)(C)N1 [Compound I-313]	> 80 µM
CC1(C)CC(NC(=O)c2ccc(-c3ccc4cnccc4c3)c(Cl)c2)CC(C)(C)N1 [Compound I-376]	20 to 80 µM
CN(C)Cc1cccc(Oc2ccc(C(=O)NC3CC(C)(C)NC(C)(C)C3)cc2)c1 [Compound I-247]	20 to 80 µM
CC1(C)CC(NC(=O)c2ccc3oc4c(C#N)cccc4c3c2)CC(C)(C)N1 [Compound I-187]	20 to 80 µM
CC(O)c1ccccc1Oc1ccc(C(=O)NC2CC(C)(C)NC(C)(C)C2)cc1Cl (stereo not shown) [Compound I-455]	5 to 20 µM
O=C(NC1CCN(C(=O)c2ccccc2)CC1)c1ccc(Oc2ccccc2)cc1 [Compound I-116]	> 80 µM
Cc1ccccc1Oc1ccc(C(=O)NC2CC(C)(C)NC(C)(C)C2)cc1 [Compound I-48]	20 to 80 µM
Cn1cncc1COc1ccc(C(=O)NC2CC(C)(C)NC(C)(C)C2)cc1Cl [Compound I-390]	> 80 µM
CC1(C)CC(NC(=O)c2ccc(N3C(=O)COc4ccccc43)c(Cl)c2)CC(C)(C)N1 [Compound I-522]	20 to 80 µM
N#Cc1c(Oc2ccc(C(=O)NC3CCN(CCN)CC3)cc2Cl)cccc1-c1ccnnc1 [Compound I-486]	5 to 20 µM
CC1(C)CC(NC(=O)c2ccc(C3=NCC(=O)Nc4ccccc43)cc2)CC(C)(C)N1 [Compound I-436]	> 80 µM

SMILES	IC50
Cc1cc(Oc2ccccc2C#N)ccc1C(=O)NC1CC(C)(C)NC(C)(C)C1 [Compound I-243]	20 to 80 µM
CC1(C)CC(NC(=O)c2ccc(Oc3ccccc3C#N)c(C3CCCC3)c2)CC(C)(C)N1 [Compound I-238]	5 to 20 µM
CC(c1ccccc1)c1ccc(C(=O)NC2CC(C)(C)NC(C)(C)C2)cc1 (stereo not shown) [Compound I-426]	> 80 µM
CC1(C)CC(NC(=O)c2ccc(COc3cccc(-c4ccc(NC(=O)C5CC5)nc4)c3)cc2)CC(C)(C)N1 [Compound I-153]	20 to 80 µM
CC1(C)CC(NC(=O)c2ccc(Oc3ccccc3)cc2Cl)CC(C)(C)N1 [Compound I-175]	> 80 µM
Cc1cccc(Oc2ccc(C(=O)NC3CC(C)(C)NC(C)(C)C3)cc2)c1 [Compound I-60]	20 to 80 µM
Cc1cc(C)cc(OCc2cccc(C(=O)NC3CC(C)(C)NC(C)(C)C3)c2)c1 [Compound I-115]	> 80 µM
CC1(C)CC(NC(=O)c2ccc(Oc3cccc(-c4ccnnc4)c3C#N)c(Cl)c2)CC(C)(C)S1 [Compound I-517]	5 to 20 µM
CNC(=O)CCc1cccc(Oc2ccc(C(=O)NC3CC(C)(C)NC(C)(C)C3)cc2Cl)c1C#N [Compound I-551]	< 5 µM
CC1CC(NC(=O)c2ccc(Oc3cccc(-c4ccnnc4)c3C#N)c(Cl)c2)CC(C)N1 (stereo not shown) [Compound I-472]	< 5 µM
N#Cc1ccccc1Oc1ccc(C(=O)NC2CCN(CCN)CC2)cc1Cl [Compound I-460]	> 80 µM
CC1(C)CC(NC(=O)c2ccc(Oc3ccccc3OCc3ccccc3)cc2)CC(C)(C)N1 [Compound I-152]	< 5 µM
CC1(C)CC(NC(=O)c2ccc(Oc3ccccc3C(C)(C)C)cc2)CC(C)(C)N1 [Compound I-151]	5 to 20 µM
CC1(C)CC(NC(=O)c2ccc(COc3cccc(-c4ccc(F)nc4)c3)cc2)CC(C)(C)N1 [Compound I-19]	5 to 20 µM
CC1(C)CC(NC(=O)c2ccc(Oc3cccc4c(Cl)nccc34)cc2)CC(C)(C)N1 [Compound I-314]	5 to 20 µM
C#Cc1ccccc1Oc1ccc(C(=O)NC2CC(C)(C)NC(C)(C)C2)cc1 [Compound I-224]	5 to 20 µM
CC1(C)CC(NC(=O)c2ccc(Oc3ccccc3-c3ccc(N)nc3)c(Cl)c2)CC(C)(C)N1 [Compound I-227]	< 5 µM
CC(=O)Nc1cccc(Oc2ccc(C(=O)NC3CC(C)(C)NC(C)(C)C3)cc2)c1 [Compound I-26, 4-(3-Acetamidophenoxy)-N-(2,2,6,6-tetramethylpiperidin-4-yl)benzamide]	20 to 80 µM
Cc1ncccc1-c1cccc(Oc2ccc(C(=O)NC3CC(C)(C)NC(C)(C)C3)cc2Cl)c1C#N [Compound I-352]	< 5 µM

Next, values leading:

IC50	SMILES
> 80 µM	CC(C)CNC(=O)c1ccc(Oc2ccccc2)cc1 [Compound I-139]
> 80 µM	CC1(C)CC(NC(=O)N2CCC(Oc3ccccc3)C2)CC(C)(C)N1 (stereo not shown) [Compound I-466]
20 to 80 µM	CC1(C)CC(NC(=O)c2ccc(Oc3ccccc3C(C)(C)C)c(Cl)c2)CC(C)(C)N1 [Compound I-210]
20 to 80 µM	CC1(C)CC(NC(=O)c2ccc(Oc3ccccc3)c(Cl)c2)CC(C)(C)N1 [Compound I-49, 3-chloro-N-(2,2,6,6-tetramethylpiperidin-4-yl)-4-phenoxybenzamide]
> 80 µM	CC1(C)CC(NC(=O)c2ccc(Oc3ccc(I)cn3)cc2)CC(C)(C)N1 [Compound I-68, 4-(5-Iodopyridin-2-yloxy)-N-(2,2,6,6-tetramethylpiperidin-4-yl)benzamide]
> 80 µM	CC1(C)CC(NC(=O)c2ccc(COc3cccc(-c4ccc(NCCN5CCOCC5)nc4)c3)cc2)CC(C)(C)N1 [Compound I-129]
< 5 µM	CC(O)c1cccc(Oc2ccc(C(=O)NC3CC(C)(C)NC(C)(C)C3)cc2Cl)c1Br (stereo not shown) [Compound I-399]
20 to 80 µM	Cc1cccc(Oc2ccc(C(=O)NC3CC(C)(C)NC(C)(C)C3)cc2Cl)c1-c1ccncc1 [Compound I-383]
5 to 20 µM	CC1(C)CC(NC(=O)c2ccc(Oc3cccc4c3C(=O)NCC4)c(Cl)c2)CC(C)(C)N1 [Compound I-525]
20 to 80 µM	CC1(C)CC(NC(=O)c2ccc(COc3cccc(-c4cncnc4)c3)cc2)CC(C)(C)N1 [Compound I-32]
> 80 µM	CC1(C)CC(NC(=O)c2ccc(OC3CCCC3)cc2)CC(C)(C)N1 [Compound I-299]
> 80 µM	CC(=O)N1C(C)(C)CC(NC(=O)c2ccc(Oc3ccccc3C#N)c(Cl)c2)CC1(C)C [Compound I-290]
< 5 µM	CC1(C)CC(NC(=O)c2ccc(Oc3cccc(-c4cccc(C#N)c4)c3C#N)c(Cl)c2)CC(C)(C)N1 [Compound I-505]
> 80 µM	CN(C)CCNC(=O)c1ccc(Oc2ccccc2)cc1 [Compound I-132]
5 to 20 µM	CC1(C)CC(NC(=O)c2ccc(Oc3cccc(CN4CCCC4=O)c3)c(Cl)c2)CC(C)(C)N1 [Compound I-447]
< 5 µM	CC1(C)CC(NC(=O)c2ccc(Oc3cccc(-c4ccc(C#N)nc4)c3C#N)c(Cl)c2)CC(C)(C)N1 [Compound I-526]
< 5 µM	CC1(C)CC(NC(=O)c2ccc(Oc3ccccc3-c3ccsc3)c(Cl)c2)CC(C)(C)N1 [Compound I-252]

IC50	SMILES
> 80 µM	COc1ncccc1-c1ccccc1Oc1ccc(C(=O)NC2CC(C)(C)NC(C)(C)C2)cc1Cl [Compound I-321]
> 80 µM	CC1(C)CC(NC(=O)c2cccc(COc3cccc(Br)c3)c2)CC(C)(C)N1 [Compound I-130]
< 5 µM	CC1(C)CC(NC(=O)c2ccc(Oc3ccccc3OCc3ccccc3)c(Cl)c2)CC(C)(C)N1 [Compound I-194]
20 to 80 µM	CC1(C)CC(NC(=O)c2ccc(COc3cccc(F)c3)cc2)CC(C)(C)N1 [Compound I-59]
5 to 20 µM	CC1(C)CC(C(=O)Nc2ccc(Oc3cccc(-c4cn[nH]c4)c3C#N)c(Cl)c2)CC(C)(C)N1 [Compound I-449]
< 5 µM	CC1(C)CC(NC(=O)c2ccc(Oc3ncccc3C#N)c(Br)c2)CC(C)(C)N1 [Compound I-220]
< 5 µM	CC1(C)CC(NC(=O)c2ccc(Oc3ccccc3-c3ccncc3)c(Cl)c2)CC(C)(C)N1 [Compound I-226]
> 80 µM	CC1(C)CC(NC(=O)c2ccc(COc3cccc(N4CCNCC4)c3)cc2)CC(C)(C)N1 [Compound I-165]
20 to 80 µM	CC1(C)CC(NC(=O)c2ccc(Sc3ccccc3)c(Cl)c2)CC(C)(C)N1 [Compound I-300]
20 to 80 µM	CC1(C)CC(NC(=O)c2ccc(Oc3ccccc3C(=O)Nc3ccccc3)c(Cl)c2)CC(C)(C)N1 [Compound I-272]
20 to 80 µM	CCOC(=O)c1cccc(Oc2ccc(C(=O)NC3CC(C)(C)NC(C)(C)C3)cc2)c1 [Compound I-34]
> 80 µM	CC1(C)CC(NC(=O)c2cccc(Oc3ccccc3)c2)CC(C)(C)N1 [Compound I-94]
< 5 µM	CN1C(C)(C)CC(NC(=O)c2ccc(Oc3ccccc3C#N)c(Cl)c2)CC1(C)C [Compound I-289]
5 to 20 µM	CC1(C)CC(NC(=O)c2ccc(Oc3ccccc3C3CCCCC3)cc2)CC(C)(C)N1 [Compound I-150]
> 80 µM	CC(c1ccccc1C#N)N1CCN(C(=O)NC2CC(C)(C)NC(C)(C)C2)CC1=O (stereo not shown) [Compound I-484]
< 5 µM	CC1(C)CC(NC(=O)c2ccc(Oc3ccccc3-c3cccs3)c(Cl)c2)CC(C)(C)N1 [Compound I-277]
> 80 µM	Cc1nnc2n1-c1ccccc1C(c1ccc(C(=O)NC3CC(C)(C)NC(C)(C)C3)cc1)=NC2 [Compound I-488]
